Laboratory results from ChEMBL document CHEMBL5634160, “Synthesis, biological evaluation and action mechanism of 7H-[1,2,4] triazolo [3,4-b] [1,3,4] thiadiazine-phenylhydrazone derivatives as α-glucosidase inhibitors” (Eur J Med Chem, 2023).

What was measured:
Alpha-glucosidase [1] = target: T1, Alpha-glucosidase (Saccharomyces cerevisiae S288c, UniProt P53341+P38158+P07265); assay: Inhibition of Saccharomyces cerevisiae alpha-glucosidase using nitrophenol-alpha-D-glucopyranoside (pNPG) as substrate incubated for 15 mins; type: protein assay
Alpha-glucosidase [2] = target: T1, Alpha-glucosidase; assay: Competitive inhibition of Saccharomyces cerevisiae alpha-glucosidase using nitrophenol-alpha-D-glucopyranoside (pNPG) as substrate at 24 to 48 uM measured after 15 mins by Lineweaver-Burk plot analysis; type: protein assay
Alpha-glucosidase [3] = target: T1, Alpha-glucosidase; assay: Non-competitive inhibition of Saccharomyces cerevisiae alpha-glucosidase using nitrophenol-alpha-D-glucopyranoside (pNPG) as substrate at 24 to 48 uM measured after 15 mins by Lineweaver-Burk plot analysis; type: protein assay
[4] = target: T2, Alpha-glucosidase (Saccharomyces cerevisiae S288c) (UniProt P53341+P38158+P07265); assay: Binding affinity to Saccharomyces cerevisiae alpha-glucosidase assessed as decrease in fluorescence intensity at 0 to 45 uM by fluorescence quenching study relative to control; type: protein assay; parameters: scale not given: the % may be the effect or the level left; conditions: dose 0-45 µM
[5] = target: T2, Alpha-glucosidase (Saccharomyces cerevisiae S288c); assay: Binding affinity to Saccharomyces cerevisiae alpha-glucosidase assessed as quenching constant value (Ksv) by fluorescence quenching study; type: protein assay
[6] = target: T2, Alpha-glucosidase (Saccharomyces cerevisiae S288c); assay: Binding affinity to Saccharomyces cerevisiae alpha-glucosidase assessed as quenching constant value (Kq) by fluorescence quenching study; type: protein assay
[7] = target: T2, Alpha-glucosidase (Saccharomyces cerevisiae S288c); assay: Binding affinity to Saccharomyces cerevisiae alpha-glucosidase assessed as quenching constant value (Ka) by fluorescence quenching study; type: protein assay
[8] = target: T2, Alpha-glucosidase (Saccharomyces cerevisiae S288c); assay: Binding affinity to Saccharomyces cerevisiae alpha-glucosidase assessed as decrease in fluorescence intensity peak 1 by 3D spectra assay; type: protein assay; parameters: scale not given: the % may be the effect or the level left
[9] = target: T2, Alpha-glucosidase (Saccharomyces cerevisiae S288c); assay: Binding affinity to Saccharomyces cerevisiae alpha-glucosidase assessed as decrease in fluorescence intensity peak 2 by 3D spectra assay; type: protein assay; parameters: scale not given: the % may be the effect or the level left
Mus musculus [10] = assay: Anti-diabetic activity against 16 hrs fasted male Kunming mouse assessed as decrease in postprandial blood glucose at 20 mg/kg, IG after 30 mins […] of sucrose administered and measured upto 2 hrs by sucrose tolerance test; type: functional; conditions: po
Mus musculus [11] = assay: Anti-diabetic activity against 16 hrs fasted male Kunming mouse assessed as AUC of postprandial blood glucose at 20 mg/kg, IG after 30 mins […] of sucrose administered and measured upto 2 hrs by sucrose tolerance test (reference value: 810.40 +/- 75.53 mM.min); type: functional, organism-based
[12] = target: T2, Alpha-glucosidase (Saccharomyces cerevisiae S288c); assay: Binding affinity to Saccharomyces cerevisiae alpha-glucosidase assessed as decrease in protein stability by measuring alpha-helix structure at 5 uM measured after 5 mins by CD spectrum assay (reference value: 84.50%); parameters: scale not given: the % may be the effect or the level left
[13] = target: T2, Alpha-glucosidase (Saccharomyces cerevisiae S288c); assay: Binding affinity to Saccharomyces cerevisiae alpha-glucosidase assessed as decrease in protein stability by measuring alpha-helix structure at 7.5 uM measured after 5 mins by CD spectrum assay (reference value: 84.50%); parameters: scale not given: the % may be the effect or the level left
[14] = target: T2, Alpha-glucosidase (Saccharomyces cerevisiae S288c); assay: Binding affinity to Saccharomyces cerevisiae alpha-glucosidase assessed as decrease in protein stability by measuring alpha-helix structure at 10 uM measured after 5 mins by CD spectrum assay (reference value: 84.50%); parameters: scale not given: the % may be the effect or the level left
[15] = target: T2, Alpha-glucosidase (Saccharomyces cerevisiae S288c); assay: Binding affinity to Saccharomyces cerevisiae alpha-glucosidase assessed as decrease in protein stability by measuring alpha-helix structure at 15 uM measured after 5 mins by CD spectrum assay (reference value: 84.50%); parameters: scale not given: the % may be the effect or the level left
[16] = target: T2, Alpha-glucosidase (Saccharomyces cerevisiae S288c); assay: Binding affinity to Saccharomyces cerevisiae alpha-glucosidase assessed as decrease in protein stability by measuring alpha-helix structure at 20 uM measured after 5 mins by CD spectrum assay (reference value: 84.50%); parameters: scale not given: the % may be the effect or the level left
[17] = target: T2, Alpha-glucosidase (Saccharomyces cerevisiae S288c); assay: Binding affinity to Saccharomyces cerevisiae alpha-glucosidase assessed as decrease in protein stability by measuring beta-sheet structure at 5 uM measured after 5 mins by CD spectrum assay (reference value: 4.30%); parameters: scale not given: the % may be the effect or the level left
[18] = target: T2, Alpha-glucosidase (Saccharomyces cerevisiae S288c); assay: Binding affinity to Saccharomyces cerevisiae alpha-glucosidase assessed as decrease in protein stability by measuring beta-sheet structure at 7.5 uM measured after 5 mins by CD spectrum assay (reference value: 4.30%); parameters: scale not given: the % may be the effect or the level left
[19] = target: T2, Alpha-glucosidase (Saccharomyces cerevisiae S288c); assay: Binding affinity to Saccharomyces cerevisiae alpha-glucosidase assessed as decrease in protein stability by measuring beta-sheet structure at 10 uM measured after 5 mins by CD spectrum assay (reference value: 4.30%); parameters: scale not given: the % may be the effect or the level left
[20] = target: T2, Alpha-glucosidase (Saccharomyces cerevisiae S288c); assay: Binding affinity to Saccharomyces cerevisiae alpha-glucosidase assessed as decrease in protein stability by measuring beta-sheet structure at 15 uM measured after 5 mins by CD spectrum assay (reference value: 4.30%); parameters: scale not given: the % may be the effect or the level left
[21] = target: T2, Alpha-glucosidase (Saccharomyces cerevisiae S288c); assay: Binding affinity to Saccharomyces cerevisiae alpha-glucosidase assessed as decrease in protein stability by measuring beta-sheet structure at 20 uM measured after 5 mins by CD spectrum assay (reference value: 4.30%); parameters: scale not given: the % may be the effect or the level left
[22] = target: T2, Alpha-glucosidase (Saccharomyces cerevisiae S288c); assay: Binding affinity to Saccharomyces cerevisiae alpha-glucosidase assessed as decrease in protein stability by measuring beta-turn structure at 5 uM measured after 5 mins by CD spectrum assay (reference value: 6.80%); parameters: scale not given: the % may be the effect or the level left
[23] = target: T2, Alpha-glucosidase (Saccharomyces cerevisiae S288c); assay: Binding affinity to Saccharomyces cerevisiae alpha-glucosidase assessed as decrease in protein stability by measuring beta-turn structure at 7.5 uM measured after 5 mins by CD spectrum assay (reference value: 6.80%); parameters: scale not given: the % may be the effect or the level left
[24] = target: T2, Alpha-glucosidase (Saccharomyces cerevisiae S288c); assay: Binding affinity to Saccharomyces cerevisiae alpha-glucosidase assessed as decrease in protein stability by measuring beta-turn structure at 10 uM measured after 5 mins by CD spectrum assay (reference value: 6.80%); parameters: scale not given: the % may be the effect or the level left
[25] = target: T2, Alpha-glucosidase (Saccharomyces cerevisiae S288c); assay: Binding affinity to Saccharomyces cerevisiae alpha-glucosidase assessed as decrease in protein stability by measuring beta-turn structure at 15 uM measured after 5 mins by CD spectrum assay (reference value: 6.80%); parameters: scale not given: the % may be the effect or the level left
[26] = target: T2, Alpha-glucosidase (Saccharomyces cerevisiae S288c); assay: Binding affinity to Saccharomyces cerevisiae alpha-glucosidase assessed as decrease in protein stability by measuring beta-turn structure at 20 uM measured after 5 mins by CD spectrum assay (reference value: 6.80%); parameters: scale not given: the % may be the effect or the level left
[27] = target: T2, Alpha-glucosidase (Saccharomyces cerevisiae S288c); assay: Binding affinity to Saccharomyces cerevisiae alpha-glucosidase assessed as decrease in protein stability by measuring random coil structure at 5 uM measured after 5 mins by CD spectrum assay (reference value: 6.20%); parameters: scale not given: the % may be the effect or the level left
[28] = target: T2, Alpha-glucosidase (Saccharomyces cerevisiae S288c); assay: Binding affinity to Saccharomyces cerevisiae alpha-glucosidase assessed as decrease in protein stability by measuring random coil structure at 7.5 uM measured after 5 mins by CD spectrum assay (reference value: 6.20%); parameters: scale not given: the % may be the effect or the level left
[29] = target: T2, Alpha-glucosidase (Saccharomyces cerevisiae S288c); assay: Binding affinity to Saccharomyces cerevisiae alpha-glucosidase assessed as decrease in protein stability by measuring random coil structure at 10 uM measured after 5 mins by CD spectrum assay (reference value: 6.20%); parameters: scale not given: the % may be the effect or the level left
[30] = target: T2, Alpha-glucosidase (Saccharomyces cerevisiae S288c); assay: Binding affinity to Saccharomyces cerevisiae alpha-glucosidase assessed as decrease in protein stability by measuring random coil structure at 15 uM measured after 5 mins by CD spectrum assay (reference value: 6.20%); parameters: scale not given: the % may be the effect or the level left
[31] = target: T2, Alpha-glucosidase (Saccharomyces cerevisiae S288c); assay: Binding affinity to Saccharomyces cerevisiae alpha-glucosidase assessed as decrease in protein stability by measuring random coil structure at 20 uM measured after 5 mins by CD spectrum assay (reference value: 6.20%); parameters: scale not given: the % may be the effect or the level left
CYP1A2 = target: T3, CYP1A2 (Rattus norvegicus, UniProt P04799); assay: Inhibition of CYP1A2 in rat liver microsomes assessed as remaining activity at 100 uM measured after 30 mins by LC-MS/MS analysis; type: ADME, Microsome; conditions: read-out: Activity
T3 sequence (P04799 whole entry): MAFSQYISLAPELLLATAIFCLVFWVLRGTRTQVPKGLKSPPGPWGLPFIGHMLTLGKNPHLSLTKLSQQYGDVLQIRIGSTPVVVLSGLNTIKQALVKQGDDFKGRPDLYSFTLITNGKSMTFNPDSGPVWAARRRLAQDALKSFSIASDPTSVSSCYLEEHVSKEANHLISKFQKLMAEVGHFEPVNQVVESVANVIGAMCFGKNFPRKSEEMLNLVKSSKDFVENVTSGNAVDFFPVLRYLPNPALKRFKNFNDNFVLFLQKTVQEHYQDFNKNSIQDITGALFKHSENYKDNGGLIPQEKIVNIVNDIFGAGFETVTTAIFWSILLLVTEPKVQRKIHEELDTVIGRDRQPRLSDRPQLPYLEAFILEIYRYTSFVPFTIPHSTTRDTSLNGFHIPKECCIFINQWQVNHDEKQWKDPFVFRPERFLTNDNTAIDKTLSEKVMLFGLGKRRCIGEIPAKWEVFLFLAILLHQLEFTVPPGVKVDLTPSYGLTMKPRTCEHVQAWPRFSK

CYP2B6 = assay: Inhibition of CYP2B6 in rat liver microsomes assessed as remaining activity at 100 uM measured after 30 mins by LC-MS/MS analysis; type: ADME, Microsome; conditions: read-out: Activity
CYP2C9 = assay: Inhibition of CYP2C9 in rat liver microsomes assessed as remaining activity at 100 uM measured after 30 mins by LC-MS/MS analysis; type: ADME, Microsome; conditions: read-out: Activity
CYP2C19 = assay: Inhibition of CYP2C19 in rat liver microsomes assessed as remaining activity at 100 uM measured after 30 mins by LC-MS/MS analysis; type: ADME, Microsome; conditions: read-out: Activity
CYP2D6 = assay: Inhibition of CYP2D6 in rat liver microsomes assessed as remaining activity at 100 uM measured after 30 mins by LC-MS/MS analysis; type: ADME, Microsome; conditions: read-out: Activity
CYP2E1 = CYP2E1 (Rattus norvegicus, UniProt P05182); assay: Inhibition of CYP2E1 in rat liver microsomes assessed as remaining activity at 100 uM measured after 30 mins by LC-MS/MS analysis; type: ADME, Microsome; conditions: read-out: Activity
Chain of CYP2E1 (P05182 whole entry): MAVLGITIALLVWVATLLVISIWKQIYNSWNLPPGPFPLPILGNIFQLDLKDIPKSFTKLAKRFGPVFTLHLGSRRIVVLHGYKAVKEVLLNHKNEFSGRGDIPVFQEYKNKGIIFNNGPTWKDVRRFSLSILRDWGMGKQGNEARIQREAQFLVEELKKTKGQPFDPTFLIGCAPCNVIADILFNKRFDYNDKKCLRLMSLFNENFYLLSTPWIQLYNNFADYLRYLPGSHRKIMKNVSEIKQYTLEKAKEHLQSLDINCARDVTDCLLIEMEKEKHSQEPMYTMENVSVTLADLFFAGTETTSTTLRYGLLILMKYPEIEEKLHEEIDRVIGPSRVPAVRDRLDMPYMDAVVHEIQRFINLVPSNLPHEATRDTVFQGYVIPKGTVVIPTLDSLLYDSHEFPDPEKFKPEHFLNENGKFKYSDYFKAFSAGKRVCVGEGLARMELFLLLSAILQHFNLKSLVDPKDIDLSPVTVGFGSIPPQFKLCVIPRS

CYP3A4 = assay: Inhibition of CYP3A4 in rat liver microsomes assessed as remaining activity at 100 uM measured after 30 mins by LC-MS/MS analysis; type: ADME, Microsome; conditions: read-out: Activity
[32] = Cytotoxicity against human HEK293 cells assessed as cell viability at 50 uM measured after 24 hrs by MTT assay relative to control; type: toxicity, cell-based; conditions: read-out: Activity
[33] = Cytotoxicity against human HEK293 cells assessed as cell viability at 100 uM measured after 24 hrs by MTT assay relative to control; type: toxicity, cell-based; conditions: read-out: Activity
[34] = Cytotoxicity against human HEK293 cells assessed as cell viability at 150 uM measured after 24 hrs by MTT assay relative to control; type: toxicity, cell-based; conditions: read-out: Activity
[35] = Cytotoxicity against human HEK293 cells assessed as cell viability at 200 uM measured after 24 hrs by MTT assay relative to control; type: toxicity, cell-based; conditions: read-out: Activity

COc1cc(/C=N/Nc2nnc3n2N=C(c2ccccc2)CS3)cc(OC)c1O
IC50 (Alpha-glucosidase [1]): 31.23 µM | Ki (Alpha-glucosidase [2]): 40.46 µM | Ki (Alpha-glucosidase [3]): 87.56 µM | Activity [4]: 87.7% | KSV [5]: 1.57 10^5L/mol | Kq [6]: 1.57 10^13L/mol | Ka [7]: 3.16 10^4L/mol | Activity [8]: 31.9% | Activity [9]: 37.4% | inhibition in vivo at 20 mg/kg (Mus musculus [10]): 24.4% | AUC (Mus musculus [11]): 723 mM·min | Activity [12]: 66.5% | Activity [13]: 63.4% | Activity [14]: 62.7% | Activity [15]: 60.2% | Activity [16]: 57.3% | Activity [17]: 5.8% | Activity [18]: 6.1% | Activity [19]: 6.3% | Activity [20]: 6.6% | Activity [21]: 7% | Activity [22]: 10.1% | Activity [23]: 10.6% | Activity [24]: 10.8% | Activity [25]: 11.2% | Activity [26]: 11.6% | Activity [27]: 16% | Activity [28]: 17.5% | Activity [29]: 18.4% | Activity [30]: 19.7% | Activity [31]: 21.2% | activity at 0.5 h, 100 µM (CYP1A2): 77.7% | activity at 0.5 h, 100 µM (CYP2B6): 98.7% | activity at 0.5 h, 100 µM (CYP2C9): 90.7% | activity at 0.5 h, 100 µM (CYP2C19): 75.4% | activity at 0.5 h, 100 µM (CYP2D6): 92.3% | activity at 0.5 h, 100 µM (CYP2E1): 92.6% | activity at 0.5 h, 100 µM (CYP3A4): 96.5% | viability at 24 h, 50 µM [32]: 100% | viability at 24 h, 100 µM [33]: 90.5% | viability at 24 h, 150 µM [34]: 81.2% | viability at 24 h, 200 µM [35]: 71.6%

Oc1ccc(/C=N/Nc2nnc3n2N=C(c2ccccc2)CS3)cc1
IC50 (Alpha-glucosidase [1]): 213.5 µM
